Experimental data as given in the supplement of paper PMC10307832.

Key:
Experiment in all cases: relative viability (nuclei count vs DMSO), 5 days (fraction); higher = more cells survive
Obatoclax + Trametinib = compound: COC1=CC(c2cc3ccccc3[nH]2)=N/C1=C\c1[nH]c(C)cc1C [Obatoclax] + CC(=O)Nc1cccc(-n2c(=O)n(C3CC3)c(=O)c3c(Nc4ccc(I)cc4F)n(C)c(=O)c(C)c32)c1 [Trametinib] (partner 0.02 µM)
Method in brief: (§1)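 Lung cancer cell lines, seeded in 1536-well plates, were treated the following day by pin tool with a single drug or with five library-drug doses (not always all listed) in √10 steps on top of a fixed anchor-drug dose. Cells were fixed and nuclei stained in one step after 5 days, and nuclei were counted. Relative viability is the nuclei count for treated wells divided by that for vehicle wells, reported as medians of duplicate plates.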

Obatoclax + Palbociclib = compound: COC1=CC(c2cc3ccccc3[nH]2)=N/C1=C\c1[nH]c(C)cc1C [Obatoclax] + CC(=O)c1c(C)c2cnc(Nc3ccc(N4CCNCC4)cn3)nc2n(C2CCCC2)c1=O [Palbociclib] (partner 0.5 µM)
Method in brief: as §1

Obatoclax + Linsitinib = compound: COC1=CC(c2cc3ccccc3[nH]2)=N/C1=C\c1[nH]c(C)cc1C [Obatoclax] + C[C@]1(O)C[C@@H](c2nc(-c3ccc4ccc(-c5ccccc5)nc4c3)c3c(N)nccn32)C1 [Linsitinib] (partner 1 µM)
Method in brief: as §1

Bortezomib + OSI-027 = compound: CC(C)C[C@H](NC(=O)[C@H](Cc1ccccc1)NC(=O)c1cnccn1)B(O)O [Bortezomib] + COc1cccc2cc(-c3nc([C@H]4CC[C@H](C(=O)O)CC4)n4ncnc(N)c34)[nH]c12 [OSI-027] (partner 0.5 µM)
Method in brief: as §1

Cell Line	relative viability (Obatoclax + Trametinib; first compound 0.01 µM)	relative viability (Obatoclax + Trametinib; first compound 0.03162 µM)	relative viability (Obatoclax + Trametinib; first compound 0.1 µM)	relative viability (Obatoclax + Trametinib; first compound 0.3162 µM)	relative viability (Obatoclax + Trametinib; first compound 1 µM)	relative viability (Obatoclax + Palbociclib; first compound 0.01 µM)	relative viability (Obatoclax + Palbociclib; first compound 0.03162 µM)	relative viability (Obatoclax + Palbociclib; first compound 0.1 µM)	relative viability (Obatoclax + Palbociclib; first compound 0.3162 µM)	relative viability (Obatoclax + Palbociclib; first compound 1 µM)	relative viability (Obatoclax + Linsitinib; first compound 0.01 µM)	relative viability (Obatoclax + Linsitinib; first compound 0.03162 µM)	relative viability (Obatoclax + Linsitinib; first compound 0.1 µM)	relative viability (Obatoclax + Linsitinib; first compound 0.3162 µM)	relative viability (Obatoclax + Linsitinib; first compound 1 µM)	relative viability (Bortezomib + OSI-027; first compound 0.0002 µM)	relative viability (Bortezomib + OSI-027; first compound 0.000632 µM)	relative viability (Bortezomib + OSI-027; first compound 0.002 µM)	relative viability (Bortezomib + OSI-027; first compound 0.006325 µM)	relative viability (Bortezomib + OSI-027; first compound 0.02 µM)
201T	0.713	0.737	0.776	0.722	0.752	0.382	0.363	0.348	0.348	0.357	1.04	1.01	1.02	1.06	1.03	0.694	0.75	0.753	0.551	0.138
A549											0.601	0.55	0.621	0.635	0.626					
A-427	0.785	0.689	0.849	0.729	0.621	0.54	0.511	0.419	0.517	0.462	1.07	0.775	1.11	1.15	1.13	0.346	0.327	0.503	0.182	0.132
ABC-1						0.838	0.717	0.595	0.609	0.454	0.619	0.768	0.815	0.928	0.372	0.476	0.296	0.193	0.183	0.2
BEN	1.01	1.01	0.861	0.944	1.03	0.467	0.477	0.429	0.462	0.44	0.948	0.828	0.913	0.948	0.796	0.302	0.288	0.28	0.259	0.167
CAL-12T	0.337	0.431	0.47	0.246	0.14	0.445	0.495	0.426	0.176	0.0895	0.646	0.773	0.919	0.809	0.526	0.757	0.578	0.754	0.165	0.129
COR-L23	0.541	0.607	0.44	0.252	0.194	0.306	0.303	0.228	0.128	0.122	0.848	1	0.767	0.29	0.173	0.808	0.755	0.58	0.0553	0.0549
COR-L 105	0.44	0.434	0.493	0.4	0.373	0.408	0.441	0.375	0.361	0.341	0.989	0.964	0.998	1.06	0.401	0.747	0.606	0.456	0.316	0.272
Calu-6											0.95	0.898	0.946	0.852	0.652					
ChaGo-K-1	0.951	0.846	0.869	0.894	0.878	0.912	0.925	0.91	0.903	0.99						0.576	0.539	0.623	0.48	0.149
EBC-1											0.771	0.879	0.922	0.87	0.65					
EKVX	0.321		0.464	0.307	0.292	0.438		0.393	0.388	0.386	0.978	0.923	1.07	0.907	0.876	0.725	0.672	0.79	0.605	0.109
EMC-BAC-2	0.959	0.937		0.89	0.557	0.502	0.494	0.474	0.556	0.432	0.796	0.817	0.827	0.797	0.875	0.359	0.296	0.321	0.206	0.181
EPLC-272H	0.306	0.301	0.352	0.252	0.301	0.323	0.313	0.477	0.266	0.282	1.13	1.22	1.15	1.03	1.2	0.306	0.282	0.286	0.125	0.106
H3255	0.561	0.629		0.631	0.615	0.308	0.299	0.278	0.327	0.324	0.893	0.976	0.985	0.884	0.892	0.593	0.601	0.466	0.352	0.28
HARA	0.658	0.926	0.83	0.768	0.705	0.314	0.224	0.285	0.242	0.216	0.923	0.316	1.03	0.703	0.919	0.439	0.322	0.616	0.0379	0.0617
HCC-15	0.43	0.297	0.401	0.353	0.411	0.672	0.728	0.695	0.752	0.609	0.879	0.708	0.845	0.736	0.606	0.677	0.707	0.667	0.0893	0.0735
HCC-44	1.09	1.02	0.989	1.1	0.994	0.922	0.916	0.967	0.993	0.94	0.688	0.628	0.688	0.555	0.63	0.462	0.523	0.472	0.252	0.197
HCC-78	0.774	0.717	1.03	0.547	0.898	0.438	0.45	0.506	0.479	0.457	0.448	0.52		0.283	0.304	0.36	0.352	0.372	0.385	0.263
HCC-366	0.348	0.323	0.321	0.245	0.228	0.401	0.34	0.311	0.304	0.203	0.597	0.675	0.64	0.454	0.427	0.821	0.539	1.1	0.742	0.047

Cell Line	relative viability (Obatoclax + Trametinib; first compound 0.01 µM)	relative viability (Obatoclax + Trametinib; first compound 0.03162 µM)	relative viability (Obatoclax + Trametinib; first compound 0.1 µM)	relative viability (Obatoclax + Trametinib; first compound 0.3162 µM)	relative viability (Obatoclax + Trametinib; first compound 1 µM)	relative viability (Obatoclax + Palbociclib; first compound 0.01 µM)	relative viability (Obatoclax + Palbociclib; first compound 0.03162 µM)	relative viability (Obatoclax + Palbociclib; first compound 0.1 µM)	relative viability (Obatoclax + Palbociclib; first compound 0.3162 µM)	relative viability (Obatoclax + Palbociclib; first compound 1 µM)	relative viability (Obatoclax + Linsitinib; first compound 0.01 µM)	relative viability (Obatoclax + Linsitinib; first compound 0.03162 µM)	relative viability (Obatoclax + Linsitinib; first compound 0.1 µM)	relative viability (Obatoclax + Linsitinib; first compound 0.3162 µM)	relative viability (Obatoclax + Linsitinib; first compound 1 µM)	relative viability (Bortezomib + OSI-027; first compound 0.0002 µM)	relative viability (Bortezomib + OSI-027; first compound 0.000632 µM)	relative viability (Bortezomib + OSI-027; first compound 0.002 µM)	relative viability (Bortezomib + OSI-027; first compound 0.006325 µM)	relative viability (Bortezomib + OSI-027; first compound 0.02 µM)
HCC-827	0.523	0.512	0.734	0.475	0.595	0.475	0.436	0.531	0.407	0.482	0.904	1.01	0.895	0.866	0.914	0.837	0.747	0.859	0.236	0.103
HOP-62	0.406	0.318	0.389	0.388	0.408	0.425	0.393	0.415	0.499	0.455	0.784	1.07	0.94	1.13	0.933	0.981	0.914	0.691	0.149	0.0803
IA-LM											0.457	0.505	0.5	0.465	0.0667					
LC-2-ad	0.954	0.859	0.885	0.905	0.969	0.428	0.46	0.489	0.464	0.438	0.829	0.828	0.906	0.688	0.434	0.76	0.621	0.986	0.209	0.174
LCLC-97TM1	0.224	0.177	0.203	0.193	0.194	0.193	0.223	0.204	0.199	0.25	0.166	0.224	0.182	0.163	0.179	0.475	0.336	0.583	0.233	0.129
LCLC-103H	0.64	0.702	0.63	0.678	0.694	0.432	0.356	0.472	0.517	0.446	0.953	1.02	1.13	1	1.23	0.482	0.511	0.492	0.201	0.14
LK-2	0.846	0.794	1.02	0.783	0.914	0.661	0.728	0.764		0.825	0.524	0.383	0.826	0.521	0.662	0.223	0.174	0.175	0.175	0.177
LOU-NH91	0.766	0.784	0.717	0.723	0.592	0.497	0.523	0.429	0.422	0.464	0.949	0.865	0.792	0.833	0.761	0.688	0.68	0.581	0.298	0.251
LU99A	0.598	0.55		0.631	0.557	0.426	0.377		0.402	0.4	0.486	0.437	0.498	0.307	0.475	0.328	0.294	0.318	0.296	0.197
NCI-H522	0.683	0.765	0.805	0.783	0.867	1.05	1.04	1.03	1.02	0.892						0.632	0.556	0.724	0.439	0.465
NCI-H596	0.814	0.784	0.692	0.652	0.565						1.07	0.945	0.809	0.66	0.731	0.804	0.619	0.766	0.21	0.195
NCI-H1299											0.975	0.837	0.925	0.948	0.72					
NCI-H1563											1.14	1.15	1.18	1.26	0.943	0.795	0.751	0.653	0.519	0.485
NCI-H1623																0.434	0.473	0.468	0.36	0.295
NCI-H1648	0.52	0.406	0.559	0.51	0.457	0.303	0.258	0.28	0.275	0.246						0.256	0.293	0.251	0.256	0.229
NCI-H1650	0.763	0.724	0.652	0.36	0.303	0.344	0.407	0.316	0.24	0.145						0.657	0.383	0.205	0.132	0.133
NCI-H1703											0.613	0.539	0.407	0.917	0.589					
NCI-H2170	0.877	0.942	0.904	0.856	0.861	0.372	0.4	0.393	0.368	0.43						0.688	0.463	0.69	0.566	0.182
NCI-H2342	0.859	0.849	0.907	0.788	0.861	0.506	0.524	0.582	0.501	0.487						0.656	0.524	0.616	0.634	0.587
SW 900	1.06	0.762	0.931	0.62	0.547	0.619	0.543	0.605	0.475	0.363						0.527	0.414	0.143	0.0928	0.108
